Results taken from patent US9416115B2, “Fused heterocyclic compounds as ion channel modulators” (Gilead Sciences, Inc., priority 2013, dated 2016).

Assays:
hNav1.3 (SCN3A) = molecular target: T1, hNav1.3 (SCN3A) (Homo sapiens, UniProt Q9NY46); assay: Voltage-dependent inhibition of the Nav1.3 sodium channel; format: cell-based; settings: voltage-dependent block of peak current, read-out: Nav 1.3-VDB 1 uM
T1 construct: expressed in transfected cells
Protocol: HEK-293 cells stably expressing wild-type (WT) hNav1.3 (SCN3A NCBI # NP 001075, SCN1B NCBI # NM 001037.4, SCN2B NCBI # NM 004588.2) were used to record INa. Cells are maintained with standard tissue culture procedures and stable channel expression is maintained with 800 ug/mL G418 and 3 ug/mL Puromycin in the culture medium. Unless otherwise noted, all reagents are purchased from Sigma-Aldrich (St Louis, Mo., U.S.A.).
(§1) Assays measuring Voltage-Dependent Block (VDB) of Nav1.3 are performed on an automated electrophysiology platform, QPatch 16X or QPatch HT (Sophion Bioscience, Copenhagen, Denmark), using the whole cell patch clamp technique to measure currents through the cell membrane. Series resistance compensation is set to 100% and series resistance and whole-cell compensation are performed automatically. Currents stored in the Sophion Bioscience Oracle database (Sophion Bioscience, Copenhagen, Denmark). Analysis is performed using QPatch Assay software and data are compiled in Excel 2010 (Microsoft, Seattle, Wash., U.S.A.).
(§2) The internal (pipette) solution consists of (in mM) 105 CsF, 10 NaF, 20 CsCl, 2 EGTA, 10 HEPES, 10 Dextrose with a pH of 7.35 and osmolarity of 300 mOsmol/kg. The external (bath) solution contains in (mM): 80 NaCl, 60 Choline-Cl, 4 KCl, 1.8 CaCl2, 1 MgCl2, 10 dextrose, 10 HEPES, with a pH of 7.35 and osmolarity of 310 mOsmol/kg. Experiments are carried out at 23-25° C.
(§3) Compound stocks are routinely made by the Gilead Sample Bank in vials to 10 mM in dimethyl sulfoxide (DMSO). In some cases, when compounds are not soluble in DMSO, they are made in 100% ethanol. Stocks are sonicated as necessary. Compounds are diluted in extracellular solution using a MicroLab Nimbus (Hamilton Robotics, Reno, Nev.) to 1 μM in glass vials and transferred to glass well plates before robotic addition to the cells.
(§4) Cells are allowed to stabilize for 10 min after establishment of the whole-cell configuration before current is measured. The test compound is applied 3 times at 120 second intervals to allow for equilibration. Currents were leak subtracted using a P/4 procedure, low-pass Bessel filtered at 5 kHz and digitized at 25 kHz. Results are presented as mean percentage inhibition.
(§5) Voltage-dependent block of Nav1.3 peak current was measured during a voltage step to 0 mV (20 ms) following a voltage step pre-conditioning steps (−55 mV for 10 sec followed by −120 mV for 10 ms). The holding potential was −120 mV and this voltage protocol induces half maximal inactivation of Nav1.3. The voltage protocol for VDB was performed every 45 seconds in the absence and presence of compound and percentage inhibition was calculated with respect to the compound free condition.

[1] = Plasma concentration in the rabbit ischemia study; format: in vivo, New Zealand rabbits; settings: iv infusion targeted to 1 uM plasma
Protocol: Rabbits were anesthetized with ketamine (35 mg/kg) and xylazine (5 mg/kg) intramuscular injection (im). A tracheotomy was performed and the trachea was intubated with an endotracheal tube. The animal was ventilated with room air supplemented with oxygen using a pressure control animal ventilator (Kent Scientific Corp., Torrington, Conn.) at a respiratory rate of 40 strokes/min and peak inspiration pressure of 10 mmH2O, which was adjusted to keep blood gases and pH within the physiological range (iSTAT clinic analyzer, Heska Corp.; Waukesha, Wis.). The left femoral artery was cannulated for the measurement of blood pressure (BP). Blood samples were also withdrawn from femoral artery. The right external jugular vein was cannulated for drug/vehicle administration. Needle electrodes were inserted subcutaneously into the limbs for recording of the surface electrocardiogram (ECG).
Reference electrodes were placed in the open incision of the neck. The body temperature of the animal was monitored via a rectal thermometer and maintained at 37-40° C. by adjusting the surface temperature of the surgical table. Regional ischemia (15 min) was induced by ligating the LAD followed by 15 min of reperfusion caused by releasing the ligation. The heart was excised at the end of the experiment and the LAD was re-ligated. The ischemic area was visualized by perfusing the heart with 1% Evans blue in saline and calculated as a percentage of total ventricular weight. Rabbits with ischemic area less than 10% or larger than 25% were excluded from the analysis. Animals were randomly assigned to vehicle and test compound groups. Test compounds were dissolved in 15% NMP, 10% Solutol and 75% de-ionized water (dH2O). Test compounds were given as an iv infusion at a rate targeted to reach plasma concentrations of 1 μM. After 30 min of compound administration the heart was subjected to 15 min of ischemia followed by 15 min of reperfusion.

hNav1.7 = hNav1.7 (Homo sapiens, UniProt Q15858); assay: Voltage-dependent inhibition of the Nav1.7 sodium channel; format: cell-based; settings: voltage-dependent block of peak current
Protocol: HEK-293 cells stably expressing wild-type (WT) hNav1.7 were obtained from Scottish Biomedical (Glasgow, Scotland, United Kingdom). Cells are maintained with standard tissue culture procedures and stable channel expression is maintained with 500 ug/mL G418 in the culture medium. Unless otherwise noted, all reagents are purchased from Sigma-Aldrich (St Louis, Mo., U.S.A.).
as §1, with “Nav1.7” for “Nav1.3”
as §2, with “140” for “80”, “NaCl,” for “NaCl, 60 Choline-Cl,”
as §3, §4
as §5, with “Nav1.7” for “Nav1.3”, “(−60” for “(−55”, “Nav1.7.” for “Nav1.3.”

T1 sequence (Q9NY46 1-1951 isoform Q9NY46-2): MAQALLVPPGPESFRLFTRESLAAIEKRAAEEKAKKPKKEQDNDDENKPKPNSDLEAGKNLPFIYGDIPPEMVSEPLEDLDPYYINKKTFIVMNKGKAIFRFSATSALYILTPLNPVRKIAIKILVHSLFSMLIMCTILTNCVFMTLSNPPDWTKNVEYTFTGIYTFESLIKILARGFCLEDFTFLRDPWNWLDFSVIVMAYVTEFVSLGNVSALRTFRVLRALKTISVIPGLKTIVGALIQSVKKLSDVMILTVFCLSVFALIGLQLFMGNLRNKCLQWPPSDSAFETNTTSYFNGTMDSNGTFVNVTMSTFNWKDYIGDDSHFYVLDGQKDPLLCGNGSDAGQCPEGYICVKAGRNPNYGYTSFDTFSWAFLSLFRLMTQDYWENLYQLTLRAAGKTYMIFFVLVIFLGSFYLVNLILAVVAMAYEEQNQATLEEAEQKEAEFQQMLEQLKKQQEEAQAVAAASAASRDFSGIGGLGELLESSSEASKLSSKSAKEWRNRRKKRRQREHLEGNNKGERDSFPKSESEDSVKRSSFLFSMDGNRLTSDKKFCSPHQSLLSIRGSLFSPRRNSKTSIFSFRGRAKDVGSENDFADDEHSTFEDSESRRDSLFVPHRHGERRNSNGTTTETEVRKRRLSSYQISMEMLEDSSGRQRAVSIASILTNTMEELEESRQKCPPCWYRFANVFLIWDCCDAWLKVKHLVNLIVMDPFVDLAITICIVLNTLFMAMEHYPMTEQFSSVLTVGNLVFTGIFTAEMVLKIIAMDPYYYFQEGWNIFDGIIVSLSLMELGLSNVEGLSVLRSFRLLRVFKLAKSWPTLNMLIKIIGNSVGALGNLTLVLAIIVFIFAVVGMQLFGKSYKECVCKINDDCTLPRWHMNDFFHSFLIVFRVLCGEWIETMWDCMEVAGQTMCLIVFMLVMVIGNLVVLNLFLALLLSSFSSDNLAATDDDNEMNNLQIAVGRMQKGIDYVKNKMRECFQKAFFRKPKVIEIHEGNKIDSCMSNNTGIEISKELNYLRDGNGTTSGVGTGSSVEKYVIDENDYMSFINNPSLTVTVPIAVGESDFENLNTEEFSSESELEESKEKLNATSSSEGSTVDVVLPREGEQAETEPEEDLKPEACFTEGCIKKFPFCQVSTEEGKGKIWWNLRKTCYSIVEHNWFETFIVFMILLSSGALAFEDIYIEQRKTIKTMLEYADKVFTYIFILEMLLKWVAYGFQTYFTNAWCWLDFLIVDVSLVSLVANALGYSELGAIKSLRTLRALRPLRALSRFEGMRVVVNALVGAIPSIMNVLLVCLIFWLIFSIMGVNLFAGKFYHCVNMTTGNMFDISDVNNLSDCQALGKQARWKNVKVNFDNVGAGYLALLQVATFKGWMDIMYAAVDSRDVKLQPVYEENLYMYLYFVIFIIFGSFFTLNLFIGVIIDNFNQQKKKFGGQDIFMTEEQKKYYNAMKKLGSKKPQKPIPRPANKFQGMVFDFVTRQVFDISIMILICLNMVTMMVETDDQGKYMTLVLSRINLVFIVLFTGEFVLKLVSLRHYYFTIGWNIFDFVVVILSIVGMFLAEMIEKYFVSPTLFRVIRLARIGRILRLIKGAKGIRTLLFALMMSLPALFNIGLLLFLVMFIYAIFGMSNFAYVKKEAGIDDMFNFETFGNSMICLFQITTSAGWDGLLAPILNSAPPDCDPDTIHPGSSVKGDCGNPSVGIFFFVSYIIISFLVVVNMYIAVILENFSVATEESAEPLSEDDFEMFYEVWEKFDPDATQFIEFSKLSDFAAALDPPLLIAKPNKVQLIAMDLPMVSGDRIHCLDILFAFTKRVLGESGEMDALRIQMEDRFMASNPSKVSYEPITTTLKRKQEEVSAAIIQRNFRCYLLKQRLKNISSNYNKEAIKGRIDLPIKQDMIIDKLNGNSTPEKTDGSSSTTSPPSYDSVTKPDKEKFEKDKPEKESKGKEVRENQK
T1 sequence (Q07699 19-218 partner): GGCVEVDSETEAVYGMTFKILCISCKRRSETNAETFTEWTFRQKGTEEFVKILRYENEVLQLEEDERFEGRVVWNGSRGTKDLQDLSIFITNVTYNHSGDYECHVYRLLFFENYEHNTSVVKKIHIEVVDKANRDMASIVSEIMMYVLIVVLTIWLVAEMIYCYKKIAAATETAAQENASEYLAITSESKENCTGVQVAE
T1 sequence (O60939 30-215 partner): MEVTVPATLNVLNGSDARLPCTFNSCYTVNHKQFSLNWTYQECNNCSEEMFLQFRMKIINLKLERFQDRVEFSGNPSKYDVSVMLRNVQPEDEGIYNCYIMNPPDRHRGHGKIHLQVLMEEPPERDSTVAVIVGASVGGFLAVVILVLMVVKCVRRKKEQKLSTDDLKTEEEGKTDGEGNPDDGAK
hNav1.7, sequence (Q15858 whole entry): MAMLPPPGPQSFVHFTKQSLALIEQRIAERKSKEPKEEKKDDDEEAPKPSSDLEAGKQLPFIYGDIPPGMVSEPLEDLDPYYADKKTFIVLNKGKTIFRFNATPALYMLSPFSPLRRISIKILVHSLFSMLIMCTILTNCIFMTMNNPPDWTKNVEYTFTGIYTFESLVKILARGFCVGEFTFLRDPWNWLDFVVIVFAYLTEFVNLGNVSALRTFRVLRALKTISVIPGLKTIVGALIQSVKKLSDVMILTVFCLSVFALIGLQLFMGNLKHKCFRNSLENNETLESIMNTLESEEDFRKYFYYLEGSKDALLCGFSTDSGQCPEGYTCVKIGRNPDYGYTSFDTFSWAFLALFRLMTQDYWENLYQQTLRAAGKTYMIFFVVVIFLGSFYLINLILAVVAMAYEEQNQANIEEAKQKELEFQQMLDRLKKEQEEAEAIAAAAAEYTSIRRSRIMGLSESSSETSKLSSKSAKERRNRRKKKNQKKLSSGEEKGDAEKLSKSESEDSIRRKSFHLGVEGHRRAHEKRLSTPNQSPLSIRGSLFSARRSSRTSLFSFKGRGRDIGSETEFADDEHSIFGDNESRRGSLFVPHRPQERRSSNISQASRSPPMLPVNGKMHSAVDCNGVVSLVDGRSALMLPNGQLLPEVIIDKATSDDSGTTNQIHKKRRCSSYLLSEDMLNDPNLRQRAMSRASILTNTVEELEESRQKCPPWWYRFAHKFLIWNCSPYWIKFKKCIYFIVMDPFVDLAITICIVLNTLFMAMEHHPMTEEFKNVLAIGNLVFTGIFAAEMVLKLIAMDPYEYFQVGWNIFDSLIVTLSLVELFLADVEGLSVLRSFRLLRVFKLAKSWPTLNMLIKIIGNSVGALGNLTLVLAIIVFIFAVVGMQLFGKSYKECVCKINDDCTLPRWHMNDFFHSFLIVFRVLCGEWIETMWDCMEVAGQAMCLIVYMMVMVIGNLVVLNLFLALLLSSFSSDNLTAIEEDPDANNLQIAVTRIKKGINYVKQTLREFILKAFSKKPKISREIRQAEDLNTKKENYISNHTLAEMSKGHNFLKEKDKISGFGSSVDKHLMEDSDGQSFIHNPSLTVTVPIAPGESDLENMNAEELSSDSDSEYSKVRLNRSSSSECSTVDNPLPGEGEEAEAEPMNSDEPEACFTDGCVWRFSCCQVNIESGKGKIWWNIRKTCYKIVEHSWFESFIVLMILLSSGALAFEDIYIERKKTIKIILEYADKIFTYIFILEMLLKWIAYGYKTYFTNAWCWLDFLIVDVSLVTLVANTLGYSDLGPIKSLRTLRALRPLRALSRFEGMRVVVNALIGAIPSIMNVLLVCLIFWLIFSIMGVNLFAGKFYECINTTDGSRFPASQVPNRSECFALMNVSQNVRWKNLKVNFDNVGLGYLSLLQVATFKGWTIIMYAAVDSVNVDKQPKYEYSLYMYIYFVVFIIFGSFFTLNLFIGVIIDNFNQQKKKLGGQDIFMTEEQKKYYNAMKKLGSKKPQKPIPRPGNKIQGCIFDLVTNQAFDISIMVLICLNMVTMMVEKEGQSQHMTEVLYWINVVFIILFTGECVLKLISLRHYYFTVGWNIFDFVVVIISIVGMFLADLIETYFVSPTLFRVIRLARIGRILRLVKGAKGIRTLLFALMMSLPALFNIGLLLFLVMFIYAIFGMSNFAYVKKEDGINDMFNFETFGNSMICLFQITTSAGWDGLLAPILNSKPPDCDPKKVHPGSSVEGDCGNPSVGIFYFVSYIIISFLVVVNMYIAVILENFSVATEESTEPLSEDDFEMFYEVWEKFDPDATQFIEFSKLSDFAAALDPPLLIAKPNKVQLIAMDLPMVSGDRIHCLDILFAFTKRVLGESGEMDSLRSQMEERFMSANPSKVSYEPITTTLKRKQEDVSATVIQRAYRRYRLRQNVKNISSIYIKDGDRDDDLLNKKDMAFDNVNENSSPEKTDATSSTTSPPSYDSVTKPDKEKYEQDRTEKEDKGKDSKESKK

Structure (SMILES) | inhibition at 1 µM (hNav1.3 (SCN3A)) [%] | Plasma concentration [1] [nM] | Nav 1.7-VDB 1 uM (hNav1.7) [percentage inhibition]
FC(F)(F)COc1ccc(-c2ccc3onc(OCc4ncccn4)c3c2)cn1 [Example 21, 3-(pyrimidin-2-ylmethoxy)-5-(6-(2,2,2-trifluoroethoxy)pyridin-3-yl)benzo[d]isoxazole] | 11.2 | 400 | –
COc1cc(-c2ccc(C(F)(F)F)cc2F)cc2c(OCc3ncccn3)noc12 [Example 24, 5-(2-fluoro-4-(trifluoromethyl)phenyl)-7-methoxy-3-(pyrimidin-2-ylmethoxy)benzo[d]isoxazole] | < 5 | – | –
COc1cc(-c2ccc(OC(F)(F)F)cc2C)cc2c(OCc3ncccn3)noc12 [Example 25, 7-methoxy-5-(2-methyl-4-(trifluoromethoxy)phenyl)-3-(pyrimidin-2-ylmethoxy)benzo[d]isoxazole] | 12.3 | – | –
Cc1cc(OC(F)(F)F)ccc1-c1cc2c(OCc3ncccn3)noc2cc1C [Example 29, 6-methyl-5-(2-methyl-4-(trifluoromethoxy)phenyl)-3-(pyrimidin-2-ylmethoxy)benzo[d]isoxazole] | 39.5 | – | 34.2
FC1(F)Oc2ccc(-c3ccc4onc(OCc5ncccn5)c4c3)cc2O1 [Example 30, 5-(2,2-difluorobenzo[d][1,3]dioxol-5-yl)-3-(pyrimidin-2-ylmethoxy)benzo[d]isoxazole] | 21.5 | – | –
FC(F)(F)Oc1ccc(-c2ccc3onc(OCc4cn5ccccc5n4)c3c2)cc1 [Example 51, 3-(imidazo[1,2-a]pyridin-2-ylmethoxy)-5-(4-(trifluoromethoxy)phenyl)benzo[d]isoxazole] | 26.6 | – | –
O=C1CC[C@H](COc2noc3ccc(-c4ccc(OC(F)(F)F)cc4)cc23)N1 [Example 61, (R)-5-(((5-(4-(trifluoromethoxy)phenyl)benzo[d]isoxazol-3-yl)oxy)methyl)pyrrolidin-2-one] | 8.6 | – | –
